From article PMC11411632 (RSC Advances, 2024)

Target: α-amylase
Assay: α-amylase inhibition, starch/DNSA colorimetric assay at […] nm
Type: biochemical

| Structure (SMILES) | α-Amylase inhibition method IC50 value |
| --- | --- |
| Cc1ccc(-c2nn(C(=O)c3ccncc3)cc2C(=O)O)cc1 [MPP, 3-(4-methylphenyl)-1-(pyridine-4-carbonyl)-1H-pyrazole-4-carboxylic acid] | 200.94 µg/mL |
| O=C(O)c1cn(C(=O)c2ccncc2)nc1-c1ccccc1 [PPP, 3-phenyl-1-(pyridine-4-carbonyl)-1H-pyrazole-4-carboxylic acid] | 122.17 µg/mL |
